Assay in all cases: NCI anticancer screen, dose series, 48 h
For test [1], the system named is KM12 colon.
In test [2] the test system is OVCAR-8 ovarian.
For test [3], the system named is BT-549 breast.
In test [4] the test system is HCC-2998 colon.
Test [5] relates to SR leukemia.
Test [6] deals with M14 melanoma.
The subject of test [7] is MALME-3M melanoma.
For test [8], the system named is A498 renal.
Test [9] concerns CCRF-CEM leukemia.
Test [10] relates to COLO 205 colon.

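How tested: cells in 96-well plates exposed to compound for 48 hours at five concentrations. TGI denotes the concentration required for complete inhibition of growth.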

With `CC(=O)O[C@H]1CCC2[C@@H]3CCC4NC(=O)C(C#N)C[C@]4(C)C3CC[C@@]21C` (stereo partly specified), the TGI in test [1], in [2], in [3], in [4], in test [5] and in test [6] was > 10 µM in each case. The TGI in test [7], in test [8], in test [9] and in test [10] was > 10 µM throughout.
As for `Nn1c(Sc2nc3ccccc3c(=O)n2N)nc2ccccc2c1=O`, the TGI in [1] was > 62.3 µM; in [2] it was 11.1 µM; in test [3] it was 6.38 µM; in test [4], 30.7 µM; in test [5] it was 5.1 µM; in test [6] it was 4.02 µM. In addition, the TGI was found to be 12.8 µM in test [7], 36.5 µM in [8], 4.51 µM in [9] and 28.8 µM in [10].
On to `O=C1/C(=C/c2ccc(O)cc2)CCC1CNc1ccccc1` (stereo unspecified), for which the TGI in test [1] is 22.7 µM; in test [2] it was 29.9 µM; in test [3], 27.6 µM; in test [4], 35.8 µM; in test [5], 4.22 µM; in test [6] it was 28.1 µM. The TGI in [7] stood at 30.6 µM; in [8] it was 31.9 µM; in test [9], 4.54 µM; in test [10] it was 16.1 µM.
Turning to `CC1(C)C=[N+]([O-])C(C)(C)N1O`, the TGI in test [1], in test [2], in [3], in test [4], in test [5] and in [6] was > 10 µM in each case. Further, the TGI in test [7], in test [9] and in test [10] was > 10 µM throughout.
On to `N#C/C(=C1/c2cc([N+](=O)[O-])ccc2-c2c1cc([N+](=O)[O-])cc2[N+](=O)[O-])N1CCCCC1`, for which the TGI is > 100 µM in test [1]; > 100 µM in test [2]; > 100 µM in [3]; > 100 µM in test [4]; 4.44 µM in test [5]; > 100 µM in [6]. Moreover, the TGI in test [7], in test [8], in test [9] and in [10] was > 100 µM in each case.
For the molecule `CC(C)(CN1CCCCC1)C(/C=C/c1ccccc1)=N\NC(=O)N/N=C(/C=C/c1ccccc1)C(C)(C)CN1CCCCC1`, the TGI in test [1] turned out to be 3.86 µM; in test [2], 3.38 µM; in [3], 3.23 µM; in test [4], 1.86 µM; in [5], 2.08 µM; in [6], 3.19 µM. Further, the TGI in test [7] was 3.7 µM; in test [8], 2.95 µM; in test [9], 3.37 µM; in test [10], 2.81 µM.
`CCN1CCCn2c(=O)[nH]c3cc(Br)cc1c32`: the TGI in test [1], in test [2], in [3], in test [4], in [5] and in test [6] was > 100 µM in each case. Moreover, the TGI in [7], in test [8], in test [9] and in test [10] was > 100 µM each time.
For `C[C@]12CC[C@H]3[C@@H](CCC4=C(Br)C(=O)C=C[C@@]43O)[C@@H]1CCC2=O`, the TGI was > 100 µM in [1]; 80.2 µM in test [2]; 81.1 µM in test [3]; 58.8 µM in test [5]; > 100 µM in [6]; > 100 µM in [7]. The TGI in test [8] is > 100 µM; in test [9], 31.7 µM; in test [10] it was > 100 µM.
Turning to `Clc1nc2c(C#Cc3ccccc3)ncnc2n1C1CCCCO1` (stereo unspecified), the TGI is 35.1 µM in test [1]; > 100 µM in test [2]; 49.7 µM in [3]; 28.7 µM in [4]; 24.1 µM in [5]; 25.9 µM in test [6]. In addition, the TGI in test [7] was 41.7 µM; in [9], > 100 µM; in [10], 32.7 µM.
In the case of `Nc1ccc2c(c1)NC(=O)[C@@H]1CCCN1C2=O`, the TGI in [1], in test [2], in test [3], in test [4], in test [5] and in [6] was > 100 µM each time. Further, the TGI in test [8], in [9] and in test [10] was > 100 µM in each case.
For `Cn1c2ccc(C3=NCCN3)cc2c2cc(C3=NCCN3)ccc21`, the TGI is > 100 µM in test [1]; > 100 µM in test [2]; > 100 µM in [3]; > 100 µM in test [5]; > 100 µM in test [6]; 61 µM in test [7]. For the same molecule, the TGI in [8] was > 100 µM; in [9], 0.0344 µM; in test [10], > 100 µM.
For the molecule `COC(=O)[C@@]1(C)CCC[C@]2(C(=O)O)C3Cc4occc4[C@H](C)[C@@H]3CCC21` (stereo partly specified), the TGI in test [1], in test [2], in test [3], in test [4], in [5] and in test [6] was > 100 µM throughout. Moreover, the TGI in test [7], in [8] and in test [9] was > 100 µM throughout.
For the molecule `Cc1cn(CCOCCOC(=O)NC(CCCNC(N)=O)C(=O)O)c(=O)[nH]c1=O` (stereo unspecified), the TGI in test [1], in [2], in test [3], in [4], in test [5] and in test [6] was > 100 µM in each case. For the same molecule, the TGI in [9] and in [10] was > 100 µM in each case.
As to `CC1=CC[C@](C)(O)[C@@]2(C)CC[C@H]3C(=C(C)C)C(=O)C[C@]3(C)C[C@H]12`, the TGI is > 50 µM in test [1]; > 50 µM in test [2]; > 50 µM in test [3]; > 50 µM in test [4]; 40.6 µM in test [5]; > 50 µM in [6]. The TGI is > 50 µM in [8], 34.2 µM in test [9] and > 50 µM in [10].

(Values after PubChem BioAssay (NCI).)
